Source: patent US20240285727A1, “NOVEL THERAPEUTIC PEPTIDES FOR NEURODEGENERATION” (UNIVERSITY OF SOUTHERN CALIFORNIA, priority 2021, published 2024)
Ends that are not written are not given here.

How the values were obtained:
[1] = tested on: SHSY5Y; assay: Analogue screening assay, measured by MTT; type: cell-based; settings: as a percentage compared to SHMOOSE (SHMOOSE activity as 100%)
Text: FIG. 10 depicts an analogue screening assay, measured by MTT. Top: each bar represents a fragment (25-amino acid in length) of SHMOOSE. Bottom: each bar represents a phosphomimetic fragment (25-amino acid in length) of SHMOOSE. Cell model is SHSY5Y. The Inventors made 103 analogues/derivatives (see Table 1).
The Inventors made 103 analogues (Table 1). Referring to FIG. 10, in the top figure, each bar represents a 25-amino acid fragment of the SHMOOSE peptide. […] The sequence length of the analogue is 14 amino acids and 3 different analysis windows of the analogue, each having 11 amino acids, were characterized. […]

[2] = SHMOOSE pharmacokinetics after intraperitoneal injection; type: in vivo, mouse; settings: IP injected mice
Experimental: SHMOOSE pharmacokinetics was studied, where 2.5 mg SHMOOSE/kg in 25-week old C57/BI6 mice were intraperitoneally injected.

[3] = tested on: C57BL/6J mice fed a high fat diet; assay: SHMOOSE in vivo: daily IP injections to mice fed a high fat diet, two weeks; design: species or system mouse
Text: The inventors also injected SHMOOSE intraperitoneally (IP) to 12-week-old C57BL/6J mice fed a high fat diet (i.e., a mild metabolic perturbation). At the conclusion of the two-week study, the inventors harvested brain and liver for RNA-Seq. As the inventors observed for SHMOOSE.D47N carriers and in in vitro experiments, 367 differentially expressed genes under a p adjusted value of 0.05 enriched mitochondrial and ribosomal terms in the liver (FIG. 3C). That is, liver expression differences were observed after SHMOOSE IP injections. Brain hypothalamus expression differences were also observed after SHMOOSE IP injections. Further, cortical expression differences were observed after SHMOOSE IP injections. However, while the inventors observed global gene expression changes as illustrated by PCA in the mouse cortex and hypothalamus, most enriched terms included central nervous system-related terms, not ribosomes nor mitochondrial specifics (FIG. 17). Furthermore, brain hippocampus expression differences were observed after SHMOOSE IP injections.
To examine the transcriptomes of mice treated with SHMOOSE, 12-week-old male […] mice were obtained from The Jackson Laboratory. Mice were fed a high fat diet for 10 days (60% total calories) prior to initiation of SHMOOSE daily IP injections (2.5 mg/kg). No more than 60 ul of volume were injected IP. […]

[4] = target: T1, mitofilin (Homo sapiens, UniProt Q16891); assay: SHMOOSE-mitofilin protein interaction (co-immunoprecipitation, reciprocal dot blot); type: binding; settings: reciprocal dot-based immunoblots, recombinant proteins
T1 construct: purchased OriGene
T1 sequence (Q16891 34-758): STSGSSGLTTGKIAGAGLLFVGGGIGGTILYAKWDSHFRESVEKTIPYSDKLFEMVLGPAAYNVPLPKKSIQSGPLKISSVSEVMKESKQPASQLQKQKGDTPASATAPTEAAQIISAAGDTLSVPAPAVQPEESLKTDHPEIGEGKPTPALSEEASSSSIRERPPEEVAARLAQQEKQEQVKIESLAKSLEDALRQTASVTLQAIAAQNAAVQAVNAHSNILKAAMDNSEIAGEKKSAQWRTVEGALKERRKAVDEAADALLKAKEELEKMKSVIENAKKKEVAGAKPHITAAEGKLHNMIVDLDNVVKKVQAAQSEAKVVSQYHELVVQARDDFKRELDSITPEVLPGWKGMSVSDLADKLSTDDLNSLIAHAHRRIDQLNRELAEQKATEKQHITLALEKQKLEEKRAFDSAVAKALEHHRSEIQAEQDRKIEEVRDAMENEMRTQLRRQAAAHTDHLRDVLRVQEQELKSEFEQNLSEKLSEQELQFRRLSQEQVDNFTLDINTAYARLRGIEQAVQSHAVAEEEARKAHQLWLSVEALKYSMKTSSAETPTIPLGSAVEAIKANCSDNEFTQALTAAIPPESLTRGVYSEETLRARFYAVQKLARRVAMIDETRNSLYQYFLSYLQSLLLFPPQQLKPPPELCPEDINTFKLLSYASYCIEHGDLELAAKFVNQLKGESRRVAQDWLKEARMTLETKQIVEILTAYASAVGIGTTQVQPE
Experimental: To identify the SHMOOSE interactome, multiple experiments were conducted. First, 1.5 nmol of SHMOOSE was spiked into 1 mg SH-SY5Y cell lysate for 6 hours at 4° C. Lysates were prepared using Thermo Pierce CoIP lysis buffer with 1× Thermo protease inhibitor cocktail and 1 mM PMSF. Briefly, cells were washed with ice-cold DPBS twice, lysed for 15 minutes on ice, and centrifuged for 10 minutes at 12,000 RCF at 4° C. The rationale for conducting this experiment was to ensure identical protein amounts between conditions and avoid differential protein expression caused by SHMOOSE treatment to cells. After 6 hours, SHMOOSE was immunoprecipitated from samples using Dynabeads A conjugated to 5 ug of custom c-terminus SHMOOSE antibody. As a negative control, SHMOOSE-spiked lysates were also immunoprecipitated using 5 ug rabbit IgG. Proteins were eluted from beads using 50 mM Glycine pH 2.8, and eluents were pH neutralized using Tris HCl pH 7.5. Complete eluents were then processed for protein identification using LC-MS. […] Statistical analysis of MaxQuant label-free quantitation data was performed with the artMS Bioconductor package, which performs the relative quantification of protein abundance using the MSstats Bioconductor package (default parameters). […]

[5] = tested on: SH-SY5Y cells; assay: Seahorse assay (oxygen consumption rate); type: cell-based
Experimental: SH-SY5Y Cells were Plated into 96-Well Plates at a Density of 10,000 Cells. The following day, cells were differentiated for a total of 4 days. Thereafter, SHMOOSE or SHMOOSE.D47N were incubated for 24 hours, followed by cell real-time oxygen consumption rates measurements using XF96 Extracellular Flux Analyzer (Seahorse Bioscience). ATP turnover and maximum respiratory capacity were calculated after challenging cells with oligomycin and FCCP (carbonyl cyanide 4-[trifluoromethoxy]phenylhydrazone). Additionally, glycolytic rate was determined using extracellular acidification rate (ECAR) and individually reported relative to basal level in percentage. All readings were normalized to total DNA content using Hoechst 33342.

[6] = tested on: SH-SY5Y cells; assay: Amyloid beta toxicity assay (LIVE/DEAD viability); type: cell-based; settings: neuronal cells stressed with oligomerized amyloid beta 42 (1 uM); 10 uM peptide
Experimental: SH-SY5Y cells were differentiated for 4 days, incubated with 10 uM SHMOOSE or SHMOOSE.D47N for 24 hours followed by another incubation with SHMOOSE or SHMOOSE.D47N with or without oligomerized 1 uM amyloid beta 42 (CPC Scientific), prepared as formerly described. A two-color fluorescence cell viability assay (LIVE/DEAD Viability/Cytotoxicity Kit; Invitrogen (cat. L3224) was used to distinguish live cells from dead cells after […] and amyloid beta 42 treatment. The ratio of live to dead cells can be quantified since live cells retain the Calcein AM dye and dead cells with damaged membranes permit entry of the ethidium homodimer dye.

[7] = target: the molecule itself; assay: Western blot of subcellular fractions of SHMOOSE-treated SH-SY5Y cells (FIG. 4A)
Experimental: Cytosolic, nuclear, and mitochondrial fractions were prepared from cultured SH-SY5Y cells. To extract nuclei, cells were washed in ice-cold DPBS and resuspended in fractionation buffer containing 10 mM HEPES pH 7.6, 3 mM MgCl2, 10 mM KCl, 5% (v/v) glycerol, 1% Triton-X100, and protease/phosphatase inhibitors for 15 minutes, followed by centrifugation for 5 minutes at 250×g and 4° C. The resulting supernatant was further centrifuged once more at 18,000×g for 10 minutes at 4° C. to obtain a relatively pure cytoplasmic fraction. The original pellet prior to the 18,000×g centrifugation was washed in 10 mM HEPES pH 7.6, 1.5 mM MgCl2, 10 mM KCl, and protease/phosphatase inhibitors and centrifuged at 250×g and 4° C. The washed pellet was then resuspended in nuclear extraction buffer containing 20 mM HEPES pH 7.6, 1.5 mM MgCl2, 420 mM NaCl, 25% (v/v) glycerol, 0.2 mM EDTA, and protease/phosphatase inhibitors, followed by three sonication periods of 5 seconds (separated by 10 seconds) with 30% amplitude on ice. The sonicated pellet was centrifuged at 18,000×g for 10 minutes at 4° C. to obtain a relatively pure nuclear lysate. To extract mitochondria, cells were washed in ice-cold DPBS and resuspended in 2 ml hypotonic buffer containing 10 mM NaCl, 1.5 mM MgCl2, and 10 mM Tris-HCl pH 7.5 for 7.5 minutes. […]

[8] = target: ATP5A1 (UniProt P25705 44-553, limits assumed); assay: binding of SHMOOSE to ATP5 subunits (FIG. 9C/9D); method not described
ATP5A1, sequence (P25705 44-553 limits assumed): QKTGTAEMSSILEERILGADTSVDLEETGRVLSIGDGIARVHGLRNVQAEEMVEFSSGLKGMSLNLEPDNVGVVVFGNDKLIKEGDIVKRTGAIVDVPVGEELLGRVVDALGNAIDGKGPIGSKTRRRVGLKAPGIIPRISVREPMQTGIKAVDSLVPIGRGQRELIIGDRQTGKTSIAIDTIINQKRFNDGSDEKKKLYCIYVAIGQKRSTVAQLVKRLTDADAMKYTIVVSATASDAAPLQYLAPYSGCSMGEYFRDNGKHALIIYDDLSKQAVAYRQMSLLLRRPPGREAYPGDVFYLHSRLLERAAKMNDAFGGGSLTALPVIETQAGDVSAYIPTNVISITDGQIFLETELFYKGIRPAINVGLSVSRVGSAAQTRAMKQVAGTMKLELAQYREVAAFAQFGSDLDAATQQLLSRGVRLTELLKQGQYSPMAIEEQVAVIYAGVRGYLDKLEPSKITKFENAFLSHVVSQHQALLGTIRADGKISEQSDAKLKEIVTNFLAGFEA

Molecule: 107 (MPSCLTTWISSIISDNSYPLVLGPKNFGATPNKSNNHAHYYNHPNPDFPNSPHPYHPR) [compound 107]
- % Efficacy [1]: 134.2%

Molecule: MPPCLTTWLSQLLKDNSYPLVLGPKNFGATPNKSNNHAHYYNHPNPDFPNSPHPYHPR [SHMOOSE]
- entry into circulation [2]: goes into the blood stream
- half-life [2]: strong half-life
- toxic effects and behavior changes [3]: did not display toxic effects nor behavior changes

Molecule: MPPCLTTWLSQLLKDNSYPLVLGPKNFGATPNKSNNHAHYYNHPNPNFPNSPHPYHPR [SHMOOSE.D47N]
- binding to mitofilin [4]: confirming binding
- basal cell oxygen consumption rate (in words) [5]: but not mutant SHMOOSE.D47N, boosts basal cell oxygen consumption rate
- mitochondrial spare capacity ([5]; after oligomycin and FCCP, 24 hours incubation): boosted mitochondrial spare capacity
- protection against cell death [6]: did not similarly protect cells

B1: SHMOOSE (Small Human Mitochondrial Open reading frame Over the SErine-tRNA) peptide (peptide)
peptide: MPPCLTTWLSQLLKDNSYPLVLGPKNFGATPNKSNNHAHYYNHPNPDFPNSPHPYHPR
notes: Endogenous SHMOOSE in Western blots is treated as the same molecule; also called wild type SHMOOSE; synthetic SHMOOSE
- binding result [7]: binds
- binding result [8]: no binding
